Results on six molecules are retold here after ChEMBL document CHEMBL6096717, “Novel 3-Pyrrolidineindole Derivatives as Serotonergic Psychedelic Agents for Treating Psychosis and Mental Illnesses Such as Depression and Post-Traumatic Stress Disorder” (ACS Med Chem Lett, 2025).

Where only a bound is given, the exact number is not on record here.

The target of the test is 5-hydroxytryptamine receptor 2A (Homo sapiens, UniProt P28223). The test is described as follows: Displacement of [3H]-ketanserin from human 5HT2A receptor incubated for 90 mins by Microbeta2 scintillation counting analysis.
5-hydroxytryptamine receptor 2A, sequence (P28223 whole entry): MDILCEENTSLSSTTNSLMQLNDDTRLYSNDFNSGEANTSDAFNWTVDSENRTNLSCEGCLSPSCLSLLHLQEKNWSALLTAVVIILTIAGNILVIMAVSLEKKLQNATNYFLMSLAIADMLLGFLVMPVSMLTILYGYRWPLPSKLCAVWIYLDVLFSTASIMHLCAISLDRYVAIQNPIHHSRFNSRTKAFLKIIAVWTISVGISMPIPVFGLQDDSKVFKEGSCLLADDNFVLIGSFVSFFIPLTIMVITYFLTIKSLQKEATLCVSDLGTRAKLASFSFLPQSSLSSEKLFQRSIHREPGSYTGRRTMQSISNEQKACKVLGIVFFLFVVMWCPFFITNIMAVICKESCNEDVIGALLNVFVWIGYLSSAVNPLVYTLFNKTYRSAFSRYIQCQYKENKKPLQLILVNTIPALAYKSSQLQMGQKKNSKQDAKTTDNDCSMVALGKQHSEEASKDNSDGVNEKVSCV
With `[2H]C([2H])(c1c[nH]c2cccc(O)c12)[C@H]1CCCN1C([2H])([2H])[2H]`, the IC50 was less than 500 nM.

Molecule `[2H]C([2H])([2H])N1CCC[C@@H]1Cc1c[nH]c2cccc(O)c12` showed an IC50 of less than 500 nM.

Molecule `[2H]C([2H])([2H])N1CCC[C@@H]1Cc1c[nH]c2cccc(F)c12` gave an IC50 of less than 500 nM.

As to `[2H]C([2H])([2H])N1CCC[C@@H]1Cc1c[nH]c2cccc(OC(=O)CCCCCCC/C=C\C/C=C\CCCC)c12`, the concentration for half-maximal inhibition (IC50) is less than 500 nM.

As to `[2H]C([2H])(c1c[nH]c2cccc(OC(=O)CCCCCCC/C=C\C/C=C\CCCC)c12)[C@H]1CCCN1C([2H])([2H])[2H]`, the 50% inhibitory concentration (IC50) is less than 500 nM.

With `[2H]C([2H])(c1c[nH]c2cccc(Cl)c12)[C@H]1CCCN1C([2H])([2H])[2H]`, the half-inhibitory concentration (IC50) was less than 500 nM.

In general, IC50 refers to the concentration that gives 50% inhibition. A higher IC50 goes with lower potency.
